Experimental data reported in ChEMBL document CHEMBL1201862, “PubChem BioAssay data set” (2004).
Active and inactive are the calls of the source.

Columns and labels:
[1] = biological target: T1, Mannose-6-phosphate isomerase (Homo sapiens, UniProt P34949); assay: human PMI inhibitors, high substrate, primary screen, biochemical, fluorescence intensity, high mannose 6-phosphate (AID 1220)
T1 sequence (P34949 whole entry): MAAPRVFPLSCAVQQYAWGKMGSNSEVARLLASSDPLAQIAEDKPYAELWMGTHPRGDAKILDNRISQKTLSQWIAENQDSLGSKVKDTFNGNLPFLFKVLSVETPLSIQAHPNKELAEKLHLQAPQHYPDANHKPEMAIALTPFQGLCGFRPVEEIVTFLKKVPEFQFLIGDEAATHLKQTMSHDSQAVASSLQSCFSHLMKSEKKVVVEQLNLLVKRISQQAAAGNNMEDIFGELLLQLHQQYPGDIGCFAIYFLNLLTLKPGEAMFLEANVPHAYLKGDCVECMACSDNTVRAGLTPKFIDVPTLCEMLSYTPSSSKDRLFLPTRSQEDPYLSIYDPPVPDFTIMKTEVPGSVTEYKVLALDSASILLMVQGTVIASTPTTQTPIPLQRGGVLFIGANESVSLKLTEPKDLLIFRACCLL

[2] = A cytotoxicity screen of small molecule inhibitors of the PhoP region in Salmonella typhi identified in the primary screen. [Related pubchem assays: 1850, 1864, 1985 ]; type: functional
[3] = ADAM10 protease inhibitors, dose response, selectivity assay for ADAM17 exosite inhibitor project, biochemical, FRET peptide substrate, recombinant human ADAM10 (AID 743259);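 note: ADAM10 enzyme cleaving a FRET peptide substrate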
[4] = biological target: Disintegrin and metalloproteinase domain-containing protein 17 (Homo sapiens, UniProt P78536); assay: exosite inhibitors of ADAM17, dose response, biochemical (AID 743260)
[5] = inhibitors of intracellular T. cruzi replication, confirmation, NIH3T3 host cells, beta-gal luminescence (AID 2044); type: functional, cell-based;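 note: intracellular parasites grown in NIH/3T3 mouse fibroblasts as host cells; luminescent beta-galactosidase reporter signal from transgenic T. cruzi replicating inside host cells; inhibitors lower the luminescence signal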
[6] = P. falciparum late gametocyte killing, dose response, luminescence (AID 1117278); type: functional, cell-based;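 note: gametocytes exposed to compound for 24 hours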
[7] = cytotoxicity toward NIH3T3 fibroblasts, dose response, counter-screen, cell-based, ATP luminescence, mouse fibroblasts (AID 2010); type: functional;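 note: cells exposed to compound for about 90 hours before reading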
[8] = Jurkat T cell cytotoxicity, dose response, cytotoxicity control for P. falciparum gametocyte viability project, luminescence (AID 1117277); type: functional, cell-based;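 note: potency reflects loss of cellular ATP meaning fewer viable cells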
[9] = HEp-2 cell cytotoxicity, dose response, cytotoxicity control for RSV inhibitor project, HTS (AID 2410); type: functional; settings: human respiratory syncytial virus
[10] = microbe, parasite or virus in culture; type: functional; settings: Mycobacterium tuberculosis

Sequence of Disintegrin and metalloproteinase domain-containing protein 17 (P78536 whole entry, the tested form may be a part): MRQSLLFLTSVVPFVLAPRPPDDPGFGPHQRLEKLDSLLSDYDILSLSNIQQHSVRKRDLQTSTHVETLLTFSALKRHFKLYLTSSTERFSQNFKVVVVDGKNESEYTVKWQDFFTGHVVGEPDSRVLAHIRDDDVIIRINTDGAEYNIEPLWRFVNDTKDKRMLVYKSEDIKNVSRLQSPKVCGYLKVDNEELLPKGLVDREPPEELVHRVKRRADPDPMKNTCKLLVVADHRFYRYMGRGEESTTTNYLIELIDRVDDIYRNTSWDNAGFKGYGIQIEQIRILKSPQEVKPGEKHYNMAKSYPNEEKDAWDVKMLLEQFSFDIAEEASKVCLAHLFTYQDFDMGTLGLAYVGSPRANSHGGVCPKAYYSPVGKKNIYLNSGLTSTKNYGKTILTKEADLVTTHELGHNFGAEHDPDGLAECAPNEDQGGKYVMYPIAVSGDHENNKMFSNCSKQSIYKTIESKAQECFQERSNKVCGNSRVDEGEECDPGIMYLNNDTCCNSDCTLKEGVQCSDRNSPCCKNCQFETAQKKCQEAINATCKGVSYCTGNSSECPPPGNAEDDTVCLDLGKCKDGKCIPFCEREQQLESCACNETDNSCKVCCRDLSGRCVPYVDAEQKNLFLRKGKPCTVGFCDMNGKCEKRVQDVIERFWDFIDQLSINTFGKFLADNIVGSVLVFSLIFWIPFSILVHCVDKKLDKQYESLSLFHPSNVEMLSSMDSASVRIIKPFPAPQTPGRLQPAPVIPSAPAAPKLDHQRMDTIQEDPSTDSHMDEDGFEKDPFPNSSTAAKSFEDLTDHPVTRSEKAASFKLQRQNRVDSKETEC

**Q.** For `COCCO/C(O)=C1\C(C)=NC2(O)c3ccccc3C(=O)C12O` (stereo not given), which IC50 [1] is on record?
**A.** > 50 µM (not active)

**Q.** Which EC50 [2] does the source give for `Cc1cc(C)nc(SCC(=O)NCc2ccco2)n1` here?
**A.** > 50 µM (active)

**Q.** Which EC50 [2] does the source give for `CCCOc1ccc(C2=CSC3=NCCN23)cc1Cl` here?
**A.** > 50 µM (active)

**Q.** For `CNS(=O)(=O)c1cccc(C(=O)OCc2cc(=O)oc3c(C)c(O)ccc23)c1`, which EC50 [2] is on record?
**A.** > 50 µM (active)

**Q.** Which results are given for `Cc1noc(C)c1C(=O)OCC(=O)Nc1ccccc1Oc1ccccc1`?
**A.** IC50 [3]: > 69.5 µM (inactive); IC50 [4]: > 69.5 µM (inactive)

**Q.** For `COc1ccc(C(=O)C[n+]2cc(-c3ccc(OC)cc3)n3c2CCCC3)cc1`, which EC50 [5] is on record?
**A.** 0.243 µM (active)

**Q.** What about the IC50 [6] of the same compound?
**A.** > 109 µM (inactive)

**Q.** What about the EC50 [7] of the same compound?
**A.** > 60 µM (not active)

**Q.** What about the IC50 [8] of the same compound?
**A.** > 83.3 µM (inactive)

**Q.** Which results are given for `CCOC(=O)c1sc(NC(=O)CN2C(=O)NC3(CC(C)CC(C)(C)C3)C2=O)cc1C` (stereo not given)?
**A.** IC50 [3]: 10.6 µM (inactive); EC50 [5]: 2.17 µM (active); CC50 [9]: 14.9 µM (active); EC50 [7]: 9.25 µM (active); CC50 [10]: 30.6 µM (active); IC50 [4]: > 69.5 µM (inactive)

**Q.** With `CCOC(=O)c1ccc(NC(=O)CCOc2ccc(C)cc2)cc1` as the compound, how does the IC50 [6] read?
**A.** > 109 µM (inactive)

**Q.** And the IC50 [8]?
**A.** > 83.3 µM (inactive)

**Q.** For `COc1ccc(NS(=O)(=O)c2ccc(OC)c(NC(=O)CCC3CCCC3)c2)cc1`, which IC50 [3] is on record?
**A.** > 69.5 µM (inactive)

**Q.** What about the IC50 [4] of the same compound?
**A.** > 69.5 µM (inactive)
